From ChEMBL document CHEMBL1201862, “PubChem BioAssay data set” (2004) come the findings set out here.

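Cultured in 96-well plates, cells were exposed to test compound for 48 hours across five concentrations. The concentration for 50% growth inhibition is given as GI50.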 Activity calls are given as the source filed them. Cut-off read from the data, not from the text of the source: active = GI50 up to about 1.1 µM and inactive = higher.

Test systems include DLD-1; NCI-H460; RPMI-8226; K562; MDA-MB-231; HT-29; HCT-15; BT-549; OVCAR-5; NCI/ADR-RES; U-251; OVCAR-8; KM-20L2; MOLT-4; UACC-62; 786-0; HCC 2998; SW-620; DMS-273; Hs-578T.
What all share (experiment): growth of human tumour cells (NCI), 48 h

As to `Cc1nc2cc(/N=N/c3c(O)ccc4ccccc34)ccc2[nH]1`, the GI50 is 24 µM (inactive) in the assay on DLD-1; 34.8 µM (inactive) with NCI-H460; 24.3 µM (inactive) in the assay with RPMI-8226; 23.9 µM (inactive) in the assay with K562; 27.8 µM (inactive) with MDA-MB-231; 40.6 µM (inactive) with HT-29. Also, the GI50 is 32.3 µM with HCT-15; 27.2 µM (inactive) in the assay on BT-549; > 75.5 µM (inactive) in the assay on OVCAR-5; 24.3 µM (inactive) in the assay with NCI/ADR-RES; 27.3 µM (inactive) with U-251; 27.4 µM (inactive) in the assay on OVCAR-8. The GI50 with KM-20L2 was > 100 µM (inactive); with MOLT-4, 21 µM (inactive); in the assay on UACC-62, 46.3 µM (inactive); in the assay with 786-0 it was 22 µM (inactive); in the assay on HCC 2998 it was > 50.5 µM (inactive); in the assay on SW-620 it was 32.4 µM (inactive). For the same compound, the GI50 was 19.4 µM (inactive) in the assay with DMS-273 and 28.2 µM (inactive) in the assay with Hs-578T.
Consider `Cn1c(=O)c2c(nc(C[N+]3([O-])CCOCC3)n2C)n(C)c1=O`, for which the GI50 was > 100 µM (inactive) in the assay with DLD-1; > 100 µM (inactive) in the assay with NCI-H460; > 100 µM (inactive) in the assay with RPMI-8226; > 100 µM (inactive) with K562; > 100 µM (inactive) with HT-29; more than 100 µM in the assay with HCT-15. In addition, the GI50 in the assay on OVCAR-5, in the assay with U-251, with OVCAR-8, in the assay on KM-20L2, in the assay on MOLT-4 and in the assay on UACC-62 was > 100 µM (inactive) each time. The GI50 in the assay on 786-0, in the assay with HCC 2998, with SW-620 and with DMS-273 was > 100 µM (inactive) throughout.
For the compound `CCOC(C)OCC#CCCBr` (stereo not drawn), the GI50 with DLD-1 was > 100 µM (inactive); in the assay on NCI-H460, > 100 µM (inactive); in the assay with RPMI-8226, > 100 µM (inactive); with K562, 59.7 µM (inactive); in the assay with HT-29, > 100 µM (inactive); with HCT-15, more than 100 µM. Also, the GI50 in the assay with OVCAR-5, in the assay on U-251, in the assay with OVCAR-8, with KM-20L2, with MOLT-4 and in the assay with UACC-62 was > 100 µM (inactive) in each case. The GI50 with 786-0, in the assay with HCC 2998, with SW-620 and in the assay with DMS-273 was > 100 µM (inactive) throughout.
In the case of `COc1ccc(CC(C#N)c2cc(OC)c(OC)c(OC)c2)cc1` (stereo not drawn), the GI50 in the assay with DLD-1 is 0.11 µM (active); in the assay with NCI-H460, 0.0409 µM (active); with RPMI-8226 it was 0.0741 µM (active); with K562, 0.0248 µM (active); in the assay on MDA-MB-231, 0.0561 µM (active); with HT-29, 0.029 µM (active). Also, the GI50 in the assay on HCT-15 was 0.0276 µM; in the assay with BT-549, 11.9 µM (inactive); in the assay on OVCAR-5 it was 6.27 µM (inactive); in the assay with NCI/ADR-RES, 0.0185 µM (active); with U-251, 0.0568 µM (active); in the assay on OVCAR-8, 0.135 µM (active). The GI50 was 0.0541 µM (active) in the assay with KM-20L2; 0.121 µM (active) in the assay with MOLT-4; 0.0275 µM (active) in the assay on UACC-62; 0.125 µM (active) in the assay with 786-0; < 0.0416 µM (active) with HCC 2998; 0.0236 µM (active) with SW-620. The GI50 with DMS-273 is 0.0303 µM (active); in the assay on Hs-578T, 0.0286 µM (active).
Turning to `O=c1c(O)c(-c2ccc(O)c(O)c2)oc2cc(O)ccc12` [FISETIN], the GI50 with DLD-1 is 20.2 µM (inactive); with NCI-H460 it was 8.05 µM (inactive); in the assay on RPMI-8226, 26.8 µM (inactive); in the assay on K562 it was 25 µM (inactive); with HT-29, 25.8 µM (inactive); in the assay with HCT-15, 14.4 µM. In addition, the GI50 was 17.2 µM (inactive) in the assay with OVCAR-5; 7.14 µM (inactive) with U-251; 21.8 µM (inactive) in the assay with OVCAR-8; 27.2 µM (inactive) with KM-20L2; 17 µM (inactive) in the assay with MOLT-4; 10.7 µM (inactive) in the assay on UACC-62. Moreover, the GI50 in the assay with 786-0 was 24.8 µM (inactive); in the assay with HCC 2998, 18.1 µM (inactive); in the assay with SW-620, 23.8 µM (inactive); in the assay with DMS-273 it was 11.5 µM (inactive).
